Converted amounts (≈) assume the structure as drawn. Values belong to the compound of their own block, whether it stands above or below them.
Test: physchem
Excerpt: Determination of the small molecule content in a complex plant matrix depends on the understanding of minimum solubility in the chosen extraction solvent. […] Often, tests on mixture are hardly reproducible on pure compounds if this aspect is not routinely considered in the workflow. We performed a general testing of best solvent systems to compare a wide range of small molecules of interest to understand the limitations of general approaches within a complex plant matrix such as Nicotiana.
For each of the 29 reference compounds, 2 mg was weighed into a 15 mL glass tube and dissolved in the minimum amount of the test solvent by gradually adding the solvent with a micropipette until complete dissolution or to a final volume of 10.0 mL. Seven solvents with polarities from nonpolar to polar were chosen for the test: hexane (C6H14), CH2Cl2, CH2Cl2/MeOH (4:1, v/v), EtOH, MeOH, MeOH/H2O (7:3, v/v), and H2O. The consumed solvents and their volumes were recorded for each reference compound.

[1] = 22 °C, organic solvent or mixture, thermodynamic from solid, Solubility in CH2Cl2
[2] = 22 °C, organic solvent or mixture, thermodynamic from solid, Solubility in EtOH
[3] = 22 °C, organic solvent or mixture, thermodynamic from solid, Solubility in MeOH/H2O (7:3)
[4] = hexane (C6H14), 22 °C, organic solvent or mixture, thermodynamic from solid, Solubility in C6H14, solvent hexane (C6H14); room temperature (21–23 °C); 2 mg compound, solvent added until dissolution or 10.0 mL
[5] = methanol, 22 °C, organic solvent or mixture, thermodynamic from solid, Solubility in MeOH, solvent methanol; room temperature (21–23 °C)
[6] = water, 22 °C, thermodynamic from solid, Solubility in H2O, solvent water; room temperature (21–23 °C)
[7] = 22 °C, organic solvent or mixture, thermodynamic from solid, Solubility in C6H14, solvent hexane (C6H14); room temperature (21–23 °C); 2 mg compound, solvent added until dissolution or 10.0 mL
[8] = 22 °C, organic solvent or mixture, thermodynamic from solid, Solubility in CH2Cl2, solvent dichloromethane (CH2Cl2); room temperature (21–23 °C)
[9] = 22 °C, organic solvent or mixture, thermodynamic from solid, Solubility in CH2Cl2/MeOH (4:1), solvent CH2Cl2/MeOH (4:1, v/v); room temperature (21–23 °C)
[10] = 22 °C, organic solvent or mixture, thermodynamic from solid, Solubility in EtOH, solvent ethanol; room temperature (21–23 °C)
[11] = 22 °C, organic solvent or mixture, thermodynamic from solid, Solubility in MeOH, solvent methanol; room temperature (21–23 °C)
[12] = 22 °C, organic solvent or mixture, thermodynamic from solid, Solubility in MeOH/H2O (7:3), solvent MeOH/H2O (7:3, v/v); room temperature (21–23 °C)
[13] = 22 °C, water, thermodynamic from solid, Solubility in H2O, solvent water; room temperature (21–23 °C)
[14] = MeOH/H2O (7:3, v/v), 22 °C, organic solvent or mixture, thermodynamic from solid, Solubility in MeOH/H2O (7:3), solvent MeOH/H2O (7:3, v/v); room temperature (21–23 °C)
[15] = dichloromethane (CH2Cl2), 22 °C, organic solvent or mixture, thermodynamic from solid, Solubility in CH2Cl2, solvent dichloromethane (CH2Cl2); room temperature (21–23 °C)
[16] = ethanol, 22 °C, organic solvent or mixture, thermodynamic from solid, Solubility in EtOH, solvent ethanol; room temperature (21–23 °C)
[17] = solvent CH2Cl2/MeOH (4:1, v/v); room temperature (21–23 °C)
[18] = solvent MeOH/H2O (7:3, v/v); room temperature (21–23 °C)
[19] = solvent dichloromethane (CH2Cl2); room temperature (21–23 °C)
[20] = solvent ethanol; room temperature (21–23 °C)
[21] = solvent hexane (C6H14); room temperature (21–23 °C); 2 mg compound, solvent added until dissolution or 10.0 mL
[22] = solvent methanol; room temperature (21–23 °C)
[23] = solvent water; room temperature (21–23 °C)
[24] = 22 °C, organic solvent or mixture, thermodynamic from solid, Solubility in C6H14
[25] = 22 °C, organic solvent or mixture, thermodynamic from solid, Solubility in MeOH
[26] = 22 °C, water, thermodynamic from solid, Solubility in H2O

Compound: O=C(O)c1cccnc1 [Nicotinic acid]
solubility [1]: < 190 µg/mL | solubility [2]: 3510 µg/mL (≈ 28.5 mM) | solubility [3]: 2850 µg/mL (≈ 23.1 mM) | solubility [4]: < 190 µg/mL | solubility [5]: 6710 µg/mL (≈ 54.5 mM) | solubility [6]: 3100 µg/mL (≈ 25.2 mM)

Compound: c1cncc([C@@H]2CCCN2)c1 [Nornicotine]
solubility [7]: 358000 µg/mL (≈ 2420 mM) | solubility [8]: 422000 µg/mL (≈ 2850 mM) | solubility [9]: 412000 µg/mL (≈ 2780 mM) | solubility [10]: 396000 µg/mL (≈ 2670 mM) | solubility [11]: 428000 µg/mL (≈ 2890 mM) | solubility [12]: 418000 µg/mL (≈ 2820 mM) | solubility [13]: 416000 µg/mL (≈ 2810 mM)

Compound: C[C@@H]1O[C@@H](OC[C@H]2O[C@@H](Oc3c(-c4ccc(O)c(O)c4)oc4cc(O)cc(O)c4c3=O)[C@H](O)[C@@H](O)[C@@H]2O)[C@H](O)[C@H](O)[C@H]1O [Rutin]
solubility [14]: 520 µg/mL (≈ 0.852 mM) | solubility [15]: < 190 µg/mL | solubility [16]: 6670 µg/mL (≈ 10.9 mM) | solubility [4]: < 190 µg/mL | solubility [5]: 49000 µg/mL (≈ 80.3 mM) | Solubility in CH2Cl2/MeOH (4:1) [17]: 3820 µg/mL (≈ 6.26 mM) | Solubility in CH2Cl2/MeOH (4:1) (solvent CH2Cl2/MeOH (4:1, v/v); room temperature (21–23 °C); listed as rutin): < 100000 µg/mL | solubility [6]: < 190 µg/mL

solubility (CH2Cl2/MeOH (4:1, v/v), 22 °C, organic solvent or mixture, thermodynamic from solid, Solubility in CH2Cl2/MeOH (4:1), solvent CH2Cl2/MeOH (4:1, v/v); room temperature (21–23 °C)): 219000 µg/mL (≈ 710 mM) | solubility [14]: 3170 µg/mL (≈ 10.3 mM) | solubility [15]: 58000 µg/mL (≈ 188 mM) | solubility [16]: 75700 µg/mL (≈ 245 mM) | solubility [4]: 3760 µg/mL (≈ 12.2 mM) | solubility [5]: 65700 µg/mL (≈ 213 mM) | solubility [6]: < 190 µg/mL
Compound: C=C[C@](C)(O)CC[C@@H]1[C@@]2(C)CCCC(C)(C)[C@@H]2CC[C@@]1(C)O [Sclareol]

Compound: CC(C)=CCC/C(C)=C/CC/C(C)=C/CC/C(C)=C/CC/C(C)=C/CC/C(C)=C/CC/C(C)=C/CC/C(C)=C/CC/C(C)=C/CO [Solanesol]
Solubility in CH2Cl2/MeOH (4:1) [17]: 203000 µg/mL (≈ 322 mM) | Solubility in MeOH/H2O (7:3) [18]: NS (not soluble, insoluble in the solvent at the tested concentration range (0.19–558 mg/mL)) | Solubility in CH2Cl2 [19]: 235000 µg/mL (≈ 372 mM) | Solubility in EtOH [20]: 3310 µg/mL (≈ 5.24 mM) | Solubility in C6H14 [21]: 42000 µg/mL (≈ 66.6 mM) | Solubility in MeOH [22]: 510 µg/mL (≈ 0.808 mM) | Solubility in H2O [23]: NS (not soluble, insoluble in the solvent at the tested concentration range (0.19–558 mg/mL))

Compound: CC(C)=CCC/C(C)=C/CC/C(C)=C/CC/C=C(\C)CC/C=C(\C)CCC=C(C)C [Squalene]
solubility [7]: 446000 µg/mL (≈ 1090 mM) | solubility [8]: 474000 µg/mL (≈ 1150 mM) | solubility [9]: 472000 µg/mL (≈ 1150 mM) | solubility [10]: 5940 µg/mL (≈ 14.5 mM) | solubility [11]: 220 µg/mL (≈ 0.536 mM) | solubility [12]: < 190 µg/mL | solubility [13]: < 190 µg/mL

solubility [24]: 104000 µg/mL (≈ 270 mM) | solubility [1]: 100000 µg/mL (≈ 260 mM) | solubility (22 °C, organic solvent or mixture, thermodynamic from solid, Solubility in CH2Cl2/MeOH (4:1)): 212000 µg/mL (≈ 551 mM) | solubility [2]: 74300 µg/mL (≈ 193 mM) | solubility [25]: 113000 µg/mL (≈ 294 mM) | solubility [3]: < 190 µg/mL | solubility [26]: < 190 µg/mL
Compound: C=C1CC[C@H](O)C/C1=C/C=C1\CCC[C@]2(C)[C@@H]([C@H](C)CCCC(C)C)CC[C@@H]12 [Vitamin D3]

solubility [24]: < 190 µg/mL | solubility [1]: < 190 µg/mL | solubility [2]: 560 µg/mL (≈ 2.55 mM) | solubility [25]: 2280 µg/mL (≈ 10.4 mM) | solubility [3]: 3030 µg/mL (≈ 13.8 mM) | solubility [26]: < 190 µg/mL
Compound: C/C(=C\CNc1ncnc2[nH]cnc12)CO [Zeatin]

Compound: CC1=C(/C=C/C(C)=C/C=C/C(C)=C/C=C/C=C(C)/C=C/C=C(C)/C=C/C2=C(C)C[C@@H](O)CC2(C)C)C(C)(C)C[C@H](O)C1 [Zeaxanthin]
solubility [7]: < 190 µg/mL | solubility [8]: 290 µg/mL (≈ 0.51 mM) | solubility [10]: < 190 µg/mL | solubility [11]: < 190 µg/mL | solubility [12]: < 190 µg/mL | solubility [13]: < 190 µg/mL | Solubility in CH2Cl2/MeOH (4:1) [17]: 490 µg/mL (≈ 0.861 mM) | Solubility in CH2Cl2/MeOH (4:1) (solvent CH2Cl2/MeOH (4:1, v/v); room temperature (21–23 °C); listed as zeaxanthin): < 100000 µg/mL

Compound: Megastigmatrienone
Solubility in CH2Cl2/MeOH (4:1) [17]: 212000 µg/mL | Solubility in MeOH/H2O (7:3) [18]: 38800 µg/mL | Solubility in CH2Cl2 [19]: 215000 µg/mL | Solubility in EtOH [20]: 197000 µg/mL | Solubility in C6H14 [21]: 1100 µg/mL | Solubility in MeOH [22]: 228000 µg/mL | Solubility in H2O [23]: NS (not soluble, insoluble in the solvent at the tested concentration range (0.19–558 mg/mL))

Compound: Phytol
Solubility in MeOH/H2O (7:3) [18]: 320 µg/mL | Solubility in H2O [23]: NS (not soluble, insoluble in the solvent at the tested concentration range (0.19–558 mg/mL))
